Source: PMC11571207, “Stereorandomized Oncocins with Preserved Ribosome Binding and Antibacterial Activity” (Journal of Medicinal Chemistry, 2024)
In brackets after ≈: the same amount, converted by molar mass. Like-named read-outs stand apart in the source and are kept apart here. Non-standard residues stand in square brackets, D forms with d. Residues, ends and D or L forms follow the SMILES beside them. Nleu = CC(C)CNCC(=O)O; Nlys = NCCCCNCC(=O)O

Tests used:
[1] = test system: K. pneumoniae NCTC 418; assay: microbe, parasite or virus in culture
Method in brief: (§1)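 Read-out was visible growth after MTT addition, the MIC being the lowest inhibitory peptide concentration. Bacteria grown to log phase in LB were exposed in MH medium to peptide from 64 μg/mL in twofold dilutions for 15-18h at 37°C.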

[2] = test system: A. baumannii ATCC19606; assay: microbe, parasite or virus in culture
Method in brief: as §1

[3] = test system: S. aureus COL (MRSA); assay: microbe, parasite or virus in culture; details: for MIC S. aureus COL (MRSA): supplement CSV
Method in brief: as §1

[4] = test system: P. aeruginosa PAO1; assay: microbe, parasite or virus in culture; details: for MIC P. aeruginosa PAO1: supplement CSV
Method in brief: as §1

[5] = test system: human red blood cells; details: red cells of human, 6 h
[6] = test system: P. aeruginosa PA14 2P4 (pmrB); assay: microbe, parasite or virus in culture; details: for MIC P. aeruginosa PA14 2P4: supplement CSV
Description: (§2) Minimum inhibitory concentration assay
(§3) Antimicrobial activity was assayed against P. aeruginosa PAO1, K. pneumoniae NCTC418, E. coli W3110, A. baumannii ATCC 19606, methicillin-resistant S. aureus COL (MRSA), and for selected peptides on P. aeruginosa PA14 and the polymyxin-B-resistant derivative PA14 2P4, as well as the clinical isolates ZEM-1A and ZEM9A, K. pneumoniae OXA-48, S. aureus Newman, Enterobacter cloacae and Burkholderia cenocepacia. The minimal inhibitory concentration (MIC) was determined by using broth microdilution method. A colo ny of bacteria was picked and grown in Luria-Bertani (LB) medium overnight at 37°C. For E. coli BW25113 sbmA::kan the medium was supplemented with 25 mg/L of kanamycin. The next day, the culture was then regrown in LB medium to log phase (OD600 = 0.6 to 0.8), which lasted approximately 4 h, and diluted to an OD600 of 0.022 in the desired medium. Stock solutions of 1 mg/mL of the samples were prepared in sterilized milliQ water and diluted to the beginning concentration of 64 μg/mL in 300 μL Mueller Hinton (MH)-medium. The diluted samples were added to first well of 96-well microtiter plate (TPP, untreated, Faust Laborbedarf, AG, Schaffhausen) and diluted serially by ½. Finally, 4 μL of the bacterial suspension was inoculated into the sample solutions (150 μL/well) with a final inoculation of about 5∙10^5 CFU/mL. The plates were then incubated at 37°C for 15-18h. For each assay, sterility (broth only) and growth control (broth with bacterial inoculum, without antibiotics) were checked with two columns in the plate. The next day, 15 μL of 3-(4,5-dimethylthiazol-2-yl)-2,5-diphenyltetrazolium bromide (MTT) was added to each well of the plate, such a way that MIC was defined as the lowest concentration of the peptide that inhibited visible growth of the tested

[7] = test system: P. aeruginosa ZEM-1A; assay: microbe, parasite or virus in culture; details: for MIC P. aeruginosa ZEM-1A: supplement CSV
Description: as §2, §3

[8] = test system: E. cloacae; assay: microbe, parasite or virus in culture; details: for MIC E. cloacae: supplement CSV
Description: as §2, §3

[9] = test system: K. pneumoniae OXA-48; assay: microbe, parasite or virus in culture; details: for MIC K. pneumoniae OXA-48: supplement CSV
Description: as §2, §3

[10] = test system: P. aeruginosa ZEM9A; assay: microbe, parasite or virus in culture; details: for MIC P. aeruginosa ZEM9A: supplement CSV
Description: as §2, §3

[11] = test system: P. aeruginosa PA14; assay: microbe, parasite or virus in culture; details: for MIC P. aeruginosa PA14: supplement CSV
Description: as §2, §3

[12] = test system: E. coli W3110; assay: microbe, parasite or virus in culture; details: for MIC E. coli W3110: supplement CSV
Method in brief: as §1

[13] = test system: P. aeruginosa PA14 4.13 (phoQ); details: for MIC P. aeruginosa PA14 4.13: supplement CSV
[14] = test system: P. aeruginosa PA14 4.18 (pmrB); details: for MIC P. aeruginosa PA14 4.18: supplement CSV
[15] = polymyxin B resistant strain, 12.5% MHB pH 7.4, 16–20 h at 37 °C
[16] = polymyxin B resistant strain, full MHB pH 7.4, 16–20 h at 37 °C
[17] = supplement CSV, 12.5% MH pH 7.4

`CC(C)C[C@H](NC(=O)CN(CC(C)C)C(=O)[C@H](CC(C)C)NC(=O)CN(CCCCN)C(=O)[C@H](CC(C)C)NC(=O)CN(CC(C)C)C(=O)[C@H](CCCCN)NC(=O)CN(CC(C)C)C(=O)[C@H](CC(C)C)NC(=O)CN(CCCCN)C(=O)[C@@H](N)CCCCN)C(N)=O` [EB9, reference compound] (H-K[Nlys]L[Nleu]K[Nleu]L[Nlys]L[Nleu]L-NH2; N-terminus assumed) was tested, and the “MIC K. pneumoniae, 12.5% MHB” value ([1]; NCTC 418) was >32 / >32 μg/mL, the “MIC K. pneumoniae, Full MHB” value ([1]; NCTC 418) was >32 / >32 μg/mL and the “MIC K. pneumoniae NCTC418” value ([1]; NCTC 418, 4 h, pH 7.4) was greater than 32 µg/mL. The “MIC A. baumannii, 12.5% MHB” value ([2]; ATCC19606) was 16 µg/mL (≈ 12.1 µM), the “MIC A. baumannii, Full MHB” value ([2]; ATCC19606) was greater than 32 µg/mL and the “MIC S. aureus, 12.5% MHB” value ([3]; COL) was >32 / 32 μg/mL. The “MIC S. aureus, Full MHB” value ([3]; COL) was >32 / 32 μg/mL, the “MIC P. aeruginosa, 12.5% MHB” value ([4]; PAO1) was 4 µg/mL (≈ 3.03 µM) and the “MIC P. aeruginosa, Full MHB” value ([4]; PAO1) was 32 µg/mL (≈ 24.2 µM). The “MHC human red blood cells” value [5] was greater than 2000 µg/mL.
For `CC(C)C[C@H](NC(=O)[C@H](CC(C)C)NC(=O)[C@H](CC(C)C)NC(=O)[C@@H](CCCCN)NC(=O)[C@H](CC(C)C)NC(=O)[C@H](CC(C)C)NC(=O)[C@@H](CCCCN)NC(=O)[C@H](CC(C)C)NC(=O)[C@H](CC(C)C)NC(=O)[C@@H](CCCCN)NC(=O)[C@H](N)CCCCN)C(N)=O` [ln69, reference compound] (H-[dK][dK]LL[dK]LL[dK]LLL-NH2), the “MIC P. aeruginosa PA14 2P4 (pmrB), 12.5% MHB” value [6, 15] was 4 µg/mL (≈ 3.03 µM), the “MIC P. aeruginosa PA14 2P4 (pmrB), full MHB” value [6, 16] was 32 µg/mL (≈ 24.2 µM) and the “MIC P. aeruginosa PA14 2P4” value ([6]; 12.5% MH pH 7.4) was 4 µg/mL (≈ 3.03 µM). The “MIC P. aeruginosa PA14 2P4” value ([6]; full MH pH 7.4) was 32 µg/mL (≈ 24.2 µM), the “MIC P. aeruginosa ZEM-1A, 12.5% MHB” value ([7]; clinical isolate, 12.5% MHB pH 7.4, 16–20 h at 37 °C, cells marked c: single measurement (in duplicates)) was 4 µg/mL (≈ 3.03 µM) and the “MIC P. aeruginosa ZEM-1A, full MHB” value ([7]; clinical isolate, full MHB pH 7.4, 16–20 h at 37 °C, cells marked c: single measurement (in duplicates)) was 1 µg/mL (≈ 0.757 µM). For the same molecule, the “MIC P. aeruginosa ZEM-1A” value ([7]; 12.5% MH pH 7.4) was 4 µg/mL (≈ 3.03 µM), the “MIC P. aeruginosa ZEM-1A” value ([7]; full MH pH 7.4) was 1 µg/mL (≈ 0.757 µM) and the “MIC E. cloacae, 12.5% MHB” value ([8]; 12.5% MHB pH 7.4, 16–20 h at 37 °C) was 2 µg/mL (≈ 1.51 µM). For the same molecule, the “MIC E. cloacae, full MHB” value ([8]; full MHB pH 7.4, 16–20 h at 37 °C) was 4 µg/mL (≈ 3.03 µM), the “MIC E. cloacae” value ([8]; 12.5% MH pH 7.4) was 2 µg/mL (≈ 1.51 µM) and the “MIC E. cloacae” value ([8]; full MH pH 7.4) was 4 µg/mL (≈ 3.03 µM). The “MIC K. pneumoniae OXA-48, 12.5% MHB” value ([9]; carbapenem-resistant, 12.5% MHB pH 7.4, 16–20 h at 37 °C) was 4/4 μg/mL, the “MIC K. pneumoniae OXA-48, full MHB” value ([9]; carbapenem-resistant, full MHB pH 7.4, 16–20 h at 37 °C) was 4/4 μg/mL and the “MIC K. pneumoniae OXA-48” value ([9]; 12.5% MH pH 7.4) was 4 µg/mL (≈ 3.03 µM). For the same molecule, the “MIC K. pneumoniae OXA-48” value ([9]; full MH pH 7.4) was 4 µg/mL (≈ 3.03 µM), the “MIC P. aeruginosa ZEM9A, full MHB” value ([10]; clinical isolate, full MHB pH 7.4, 16–20 h at 37 °C) was 4 to 8 µg/mL and the “MIC P. aeruginosa ZEM9A” value ([10]; 12.5% MH pH 7.4) was 2 µg/mL (≈ 1.51 µM). The “MIC P. aeruginosa ZEM9A” value ([10]; full MH pH 7.4) was 4 to 8 µg/mL, the “MIC P. aeruginosa PA14, 12.5% MHB” value ([11]; 12.5% MHB pH 7.4, 16–20 h at 37 °C, two different duplicate MIC determinations) was 2/2 μg/mL and the “MIC P. aeruginosa PA14, full MHB” value ([11]; full MHB pH 7.4, 16–20 h at 37 °C, two different duplicate MIC determinations) was 2/2 μg/mL. The “MIC P. aeruginosa PA14” value ([11]; 12.5% MH pH 7.4) was 2 µg/mL (≈ 1.51 µM), the “MIC P. aeruginosa PA14” value ([11]; full MH pH 7.4) was 2 µg/mL (≈ 1.51 µM) and the “MIC K. pneumoniae NCTC418” value [1, 17] was 4 µg/mL (≈ 3.03 µM). For the same molecule, the “MIC K. pneumoniae NCTC418” value ([1]; supplement CSV, full MH pH 7.4) was 8 µg/mL (≈ 6.05 µM), the “MIC A. baumannii, 12.5% MHB” value ([2]; A. baumannii ATCC19606, 12.5% Müller–Hinton medium, 16–20 h at 37 °C) was 2 µg/mL (≈ 1.51 µM) and the “MIC A. baumannii, Full MHB” value ([2]; A. baumannii ATCC19606, full Müller–Hinton medium, 16–20 h at 37 °C) was 2 to 4 µg/mL. For the same molecule, the “MIC A. baumannii ATCC19606” value [2, 17] was 2 µg/mL (≈ 1.51 µM), the “MIC S. aureus, 12.5% MHB” value ([3]; S. aureus COL (MRSA), 12.5% Müller–Hinton medium, 16–20 h at 37 °C) was 2 µg/mL (≈ 1.51 µM) and the “MIC S. aureus, Full MHB” value ([3]; S. aureus COL (MRSA), full Müller–Hinton medium, 16–20 h at 37 °C) was 16 µg/mL (≈ 12.1 µM). For the same molecule, the “MIC S. aureus COL (MRSA)” value ([3]; 12.5% MH pH 7.4) was 2 µg/mL (≈ 1.51 µM), the “MIC S. aureus COL (MRSA)” value ([3]; full MH pH 7.4) was 16 µg/mL (≈ 12.1 µM) and the “MIC P. aeruginosa PAO1” value ([4]; 12.5% MH pH 7.4) was 2 µg/mL (≈ 1.51 µM). For the same molecule, the “MIC P. aeruginosa PAO1” value ([4]; full MH pH 7.4) was 4 µg/mL (≈ 3.03 µM), the “MIC E. coli, 12.5% MHB” value ([12]; E. coli W3110, 12.5% Müller–Hinton medium, 16–20 h at 37 °C, broth microdilution) was 2 µg/mL (≈ 1.51 µM) and the “MIC E. coli, Full MHB” value ([12]; E. coli W3110, full Müller–Hinton medium, 16–20 h at 37 °C, broth microdilution) was 4 µg/mL (≈ 3.03 µM). For the same molecule, the “MIC E. coli W3110” value ([12]; 12.5% MH pH 7.4) was 2 µg/mL (≈ 1.51 µM), the “MIC E. coli W3110” value ([12]; full MH pH 7.4) was 4 µg/mL (≈ 3.03 µM) and the “MIC P. aeruginosa PA14 4.13 (phoQ), 12.5% MHB” value [13, 15] was 2 µg/mL (≈ 1.51 µM). The “MIC P. aeruginosa PA14 4.13 (phoQ), full MHB” value [13, 16] was 4 µg/mL (≈ 3.03 µM), the “MIC P. aeruginosa PA14 4.13” value ([13]; 12.5% MH pH 7.4) was 2 µg/mL (≈ 1.51 µM) and the “MIC P. aeruginosa PA14 4.13” value ([13]; full MH pH 7.4) was 4 µg/mL (≈ 3.03 µM). For the same molecule, the “MIC P. aeruginosa PA14 4.18 (pmrB), 12.5% MHB” value [14, 15] was 2 µg/mL (≈ 1.51 µM), the “MIC P. aeruginosa PA14 4.18 (pmrB), full MHB” value [14, 16] was 16 µg/mL (≈ 12.1 µM) and the “MIC P. aeruginosa PA14 4.18” value ([14]; 12.5% MH pH 7.4) was 2 µg/mL (≈ 1.51 µM). The “MIC P. aeruginosa PA14 4.18” value ([14]; full MH pH 7.4) was 16 µg/mL (≈ 12.1 µM) and the “MHC human red blood cells” value [5] was 1000 µg/mL.
